In this assay the test system is caspase-9 and -6. The assay is described as follows: Fluorometric caspase-6/9 activity assay in P693 cells. In kind it is cell-based, human. To be noted: cisplatin 2 µg/ml alone, Fig. 5a. The procedure: • (a) P693 and CEM cells were treated with cisplatin (2 µg/ml) in the absence or presence of DEX (1 µM) as indicated. 24 and 48 h following treatment cells were lysed and caspase-9 activity was determined using a fluorescent caspase-9 assay and spectroscopy. • (b) P5 and CEM cells were treated as described above. 24 h after stimulation Apaf-1 was immunoprecipitated from the cell extracts using a […]. Aliquotes of the precipitates were separated by three different gels and analysed by Western blotting using rabbit polyclonal Apaf-1, mAb cytochrome c or caspase-9 antibodies. The antibody heavy chain band (IgGH) ensures equal conditions. […]
• (A) Cell culture. […] The mice were given 0.28 mg/L DEX in drinking water, and the amount of water consumed was monitored. […] The tumour volumes were measured using callipers, and calculated using, as an approximation, the formula for volume of a hemi-ellipsoid: π(width^2 x length)/6. […] Early apoptotic changes were identified by staining of cells with fluoresceinthiocyanate (FITC)-conjugated annexin V and propidium iodide (Becton Dickinson, Heidelberg, Germany) and analysed by flow cytometry (FACScan, Becton Dickinson) as described (Herr et al., EMBO J. 16 (1997), 6200-6208) • (E) Immunohistochemistry. […] Bound antibodies were detected by FITC conjugated anti-mouse or anti-rabbit IgG (Molecular Probes Europe, Leiden, The Netherlands). […]

Molecules are shown by their SMILES.

Consider `N.N.[Cl][Pt][Cl]` [cisplatin], for which the caspase-6/9 activity result was “induced 24 h following cisplatin in P693 and CEM cells with increasing activity at 48 h”.

Values taken from patent EP1283052A1, “Pharmaceutical composition containing caspase-8 and /or caspase-9 useful for overcoming glucocorticoid- and cancer therapy-induced apoptosis of tumours” (Deutsches Krebsforschungszentrum Stiftung des öffentlichen …, priority 2001, dated 2003).
